The values below come from patent publication EP4782453A1 (Beyang Therapeutics Co., Ltd., priority 2023, dated 2025).

Where two headings read alike, the source gives them in different places.

One experiment deals with T1, Menin-MLL (Homo sapiens, UniProt O00255).
T1 construct: His-Menin (M1-L615 end); purchased BIORTUS BP9210
T1 sequence (O00255 1-615 isoform O00255-1): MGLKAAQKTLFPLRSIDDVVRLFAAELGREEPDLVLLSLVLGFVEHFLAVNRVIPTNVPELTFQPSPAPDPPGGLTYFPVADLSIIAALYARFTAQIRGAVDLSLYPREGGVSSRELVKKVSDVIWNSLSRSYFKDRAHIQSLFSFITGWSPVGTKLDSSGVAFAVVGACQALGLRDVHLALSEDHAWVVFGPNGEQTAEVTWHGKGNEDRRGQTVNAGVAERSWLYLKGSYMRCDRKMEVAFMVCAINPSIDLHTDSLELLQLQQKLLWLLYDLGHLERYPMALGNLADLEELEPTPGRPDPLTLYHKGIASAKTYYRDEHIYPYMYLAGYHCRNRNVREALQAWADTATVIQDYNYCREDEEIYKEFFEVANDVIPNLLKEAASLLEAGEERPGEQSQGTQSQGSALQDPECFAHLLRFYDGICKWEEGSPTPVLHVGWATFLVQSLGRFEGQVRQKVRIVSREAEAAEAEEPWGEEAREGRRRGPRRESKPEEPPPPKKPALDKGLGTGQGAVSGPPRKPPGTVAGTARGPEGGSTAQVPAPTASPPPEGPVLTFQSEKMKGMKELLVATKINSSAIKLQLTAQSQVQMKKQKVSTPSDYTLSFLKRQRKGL
Description: Inhibitory activity against Menin-MLL binding (fluorescence polarization). The following applies: 150 nM His-Menin, 15 nM FITC-MLL, 25°C for 60 min. A digest of the protocol:
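His-Menin (M1-L615, 150 nM) preincubated with compound 15 min at 25 °C in HEPES pH 7.5, 50 mM NaCl, 1 mM DTT, 0.01% BSA, then 15 nM FITC-MLL4-43 peptide added for 60 min at 25 °C. Fluorescence polarization read; IC50 from 4-parameter logistic fit, duplicates.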
(Polarisation of emitted light reports the rotation of a fluorescent probe.)

The subject of experiment [1] is MV-4-11 (carrying MLL-AF4). Description: Inhibition of proliferation of human tumor cells (Alamar Blue, 7 days), MV-4-11. In kind it is cell-based. The following applies: MV-4-11 cells (carrying MLL-AF4), method calls the value GI50. From the text: Experimental Example 2: Evaluation of Inhibitory Activity of Compounds Against Proliferation of Human Tumor Cells
• Human acute lymphoblastic leukemia cells MV-4-11, purchased from American Type Culture Collection, Catalog Number: CRL-9591; • Human acute myeloid leukemia cells MOLM-13, purchased from COBIOER BIOSCIENCES CO., LTD, Catalog Number: CBP60678; • Human acute myeloid leukemia cells KG-1a, purchased from American Type Culture Collection, Catalog Number: CCL-246.1; • Inverted Microscope, purchased from Olympus Tokyo; • Countess™ Automated Cell Counter, purchased from Invitrogen, Model: C10281; and • Multilabel Reader, purchased from Bio-Tek, Model: Synergy HT.
MV-4-11 cells were cultured in an IMDM medium containing 10% fetal bovine serum, KG-a cells were cultured in an IMDM medium containing 20% fetal bovine serum, or MOLM-13 cells were cultured in an RPMI-1640 medium containing 20% fetal bovine serum, each supplemented with 100 U·mL^-1 penicillin and 100 µg·mL^-1 streptomycin. These cells were cultured at 37°C with 5% CO2. The suspensions of individual cell lines were prepared in their respective media and seeded into 96-well plates at a density of 4,000 cells/well for MV-4-11 and MOLM-13 cells, or 3,000 cells/well for KG-1a cells. On the day of the experiment, a compound stock solution was diluted in a 3-fold or 4-fold gradient using DMSO. Each gradient-diluted stock solution was then further diluted 250-fold with a complete medium to prepare a series of working solutions at different concentrations. Subsequently, 100 µL of working solution (containing a 2-fold concentration series of the test compound) was added to each well, with duplicate wells set up for each concentration.
Seven days after compound addition (on Day 7), an Alamar Blue assay reagent (MCE, HY-111391 / CS-0040317) was added to measure the fluorescence intensity in each well. Wells containing the cells in the growth medium supplemented with 0.1% DMSO (Day 7) served as high-read control wells. The readouts from the wells containing the cells in the growth medium supplemented with 0.1% DMSO on the day of compound addition (Day 0) served as low-reading control well. GraphPad Prism software was used to calculate the concentration required to inhibit 50% of cell proliferation (GI50), which serves as a cell proliferation inhibition activity index.
(Resazurin is reduced to fluorescent resorufin, in cell work by metabolically active cells.)

Experiment [2] concerns MOLM-13 (carrying MLL-AF9). The experiment is described as follows: Inhibition of proliferation of human tumor cells (Alamar Blue, 7 days), MOLM-13. It is filed as cell-based. The following applies: MOLM-13 cells (carrying MLL-AF9), method calls the value GI50. Summed up: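 Cells seeded at 4,000/well (MV-4-11, MOLM-13) or 3,000/well (KG-1a), treated in duplicate with serial compound dilutions for 7 days at 37°C, 5% CO2. Alamar Blue fluorescence read on Day 7, normalised to 0.1% DMSO Day-7 (high) and Day-0 (low) controls; GI50 derived.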

[3] abbreviates: fluorescence polarization, read-out: Menin-MLL IC50.
[4] abbreviates: Menin-MLL IC50, fluorescence polarization.

In general, IC50 refers to the midpoint of a concentration-inhibition curve.

For `CO[C@@H]1CN(CCC[C@H](C(C)C)N2CC(c3cc(-c4ccc(F)cc4C(=O)N4CCOC[C@H]4C)c4c(F)nc(C)n4c3)C2)C[C@H]1O` (relative stereo) [Example 291, (3r,4r)-1-[(4R)-4-[3-(1-fluoro-8-{4-fluoro-2-[(3R)-3-methylmorpholin-4-carbonyl]phenyl}-3-methylimidazo[1,5-a]pyridin-6-yl)azacyclobutan-1-yl]-5-methylhexyl]-4-methoxypyrrolidin-3-ol], the IC50 at Menin-MLL (setting [3]) stood at 3 nM; in experiment [1] (Homo sapiens, MV4-11, 168 h), 1.6 nM; in experiment [2] (Homo sapiens, 168 h) it was 7 nM.

On to `CCN(C(=O)c1cc(F)ccc1-c1cc([C@H]2CCN(C[C@]3(O)CC[C@H](NS(=O)(=O)CC)CC3)C2)cc2c1cnn2C)C(C)C` [Compound 55-1-1, N-ethyl-5-fluoro-2-[1-methyl-6-[(3R)-1-{[(1r,4s)-4-ethanesulfonamido-1-hydroxylcyclohexyl]methyl}pyrrolidin-3-yl]-1H-indazol-4-yl]-N-(isopropyl)benzamide], for which the results for the IC50 (on Menin-MLL (setting [3]); in experiment [1]; in experiment [2]) were 14 nM, 18.5 nM and 44 nM, respectively.

On to `CCN(C(=O)c1cc(F)ccc1-c1cc(C2CN(C[C@H]3CC[C@H](NS(=O)(=O)CC)CC3)C2)cn2c(C)ncc12)C(C)C` [Example 120, N-ethyl-5-fluoro-2-[3-methyl-6-(1-{[(1r,4r)-4-ethanesulfonamidocyclohexyl]methyl}-azacyclobutan-3-yl)imidazo[1,5-a]pyridin-8-yl]-N-(isopropyl)benzamide], for which the IC50 was determined as 8.5 nM at Menin-MLL (setting [4]); 8.5 nM in experiment [1] (Homo sapiens, MV4-11, 168 h); 29.5 nM in experiment [2] (Homo sapiens, MOLM-13, 168 h).

Take `C=C1C[C@@H]2CC[C@H]1[C@@H](C(=O)N1CC(c3cc(-c4ccc(F)cc4C(=O)N(CC(F)F)C(C)C)c4cnc(C)n4c3)C1)N2` [Example 121, N-(2,2-difluoroethyl)-5-fluoro-2-(3-methyl-6-{1-[(1S,3S,4R)-5-methylene-2-azabicyclo[2.2.2]octan-3-carbonyl]azacyclobutan-3-yl}imidazo[1,5-a]pyridin-8-yl)-N-(isopropyl)benzamide]: the IC50 turned out to be 23.5 nM on Menin-MLL (setting [3]); 42 nM in experiment [1] (Homo sapiens, MV4-11, 168 h); 128 nM in experiment [2] (Homo sapiens, 168 h).

On to `CCS(=O)(=O)N[C@H]1CC[C@H](CN2CCC(c3cc(-c4ccc(F)cc4C(=O)N(CC(F)F)C(C)C)c4cnc(C)n4c3)CC2)CC1` [Example 128], for which the half-maximal inhibitory concentration (IC50) on Menin-MLL (setting [4]) was determined as 37 nM; in experiment [1] (Homo sapiens, MV4-11, 168 h), 56 nM; in experiment [2] (Homo sapiens, MOLM-13, 168 h) it was 30 nM.

With `Cc1nc(F)c2c(-c3ccc(F)cc3C(=O)N(CC(F)F)C(C)C)cc(C3CN(C(=O)[C@@H]4CCCCN4)C3)cn12` [Example 131, N-(2,2-difluoroethyl)-5-fluoro-2-(1-fluoro-3-methyl-6-{1-[(2S)-piperidin-2-carbonyl]azacyclobutan-3-yl}imidazo[1,5-a]pyridin-8-yl)-N-(isopropyl)benzamide], the IC50 is 15.5 nM at Menin-MLL (setting [3]); 50 nM in experiment [1] (Homo sapiens, MV4-11, 168 h); 40 nM in experiment [2] (Homo sapiens, 168 h).

For `CNCCCC(C(C)C)N1CC(c2cc(-c3ccc(F)cc3C(=O)N(CC(F)F)C(C)C)c3cnccn23)C1` (stereo not shown) [Example 146, N-(2,2-difluoroethyl)-5-fluoro-2-(6-{1-[2-methyl-6-(methylamino)hexan-3-yl]azacyclobutan-3-yl}pyrrolo[1,2-a]pyrazin-8-yl)-N-(isopropyl)benzamide], the IC50 at Menin-MLL (setting [3]) was determined as 46 nM; in experiment [1] (Homo sapiens, MV4-11, 168 h), 89 nM.

With `CCN(C(=O)c1cc(F)ccc1-c1cc(C2CN([C@H](CCCN3CCN(C(=O)C4(C#N)COC4)CC3)C(C)C)C2)cn2c(C)ncc12)C(C)C` [Example 495], the IC50 at Menin-MLL (setting [3]) amounted to 2.4 nM; in experiment [2] (Homo sapiens, 168 h), 27 nM.

Take `CCN(C(=O)c1cc(F)ccc1-c1cc(C2CN([C@H](CCCN3CCN(CCOC)CC3)C(C)C)C2)cn2c(C)ncc12)C(C)C` [Example 497]: the IC50 on Menin-MLL (setting [3]) is 0.9 nM; in experiment [2] (Homo sapiens, 168 h), 41 nM.

Regarding `CCN(C(=O)c1cc(F)ccc1-c1cc(C2CN(C(CCCN3CCNC(CC#N)C3)C(C)C)C2)cn2c(C)ncc12)C(C)C` (stereo not shown) [Example 498], the IC50 amounted to 2.8 nM on Menin-MLL (setting [4]) and 23 nM in experiment [2] (Homo sapiens, MOLM-13, 168 h).

For the compound `CCN(C(=O)c1cc(F)ccc1-c1cc(C2CN(C(CCCN3CCNC(CC#N)C3)C(C)C)C2)cn2c(C)ncc12)C(C)C` (stereo not shown) [Example 499], the IC50 at Menin-MLL (setting [4]) was found to be 2.1 nM; in experiment [2], 29 nM.

Regarding `CCN(C(=O)c1cc(F)ccc1-c1cc(C2CN([C@H](CCCN3CCN[C@@H](COC)C3)C(C)C)C2)cn2c(C)ncc12)C(C)C` [Example 502], the IC50 at Menin-MLL (setting [3]) was 0.9 nM; in experiment [2] (Homo sapiens, 168 h), 9.8 nM.

Regarding `CCN(C(=O)c1cc(F)ccc1-c1cc(C2CN([C@H](CCCN3CCN[C@H](COC)C3)C(C)C)C2)cn2c(C)ncc12)C(C)C` [Example 503], the IC50 came to 1 nM at Menin-MLL (setting [3]) and 8.5 nM in experiment [2] (Homo sapiens, 168 h).

For `COC[C@H]1CN(CCC[C@H](C(C)C)N2CC(c3cc(-c4ccc(F)cc4C(=O)N(C(C)C)C(C)C)c4cnc(C)n4c3)C2)CCN1` [Example 504-2, 5-fluoro-2-(6-{1-[(3R)-6-[(3R)-3-(methoxymethyl)piperazin-1-yl]-2-methylhexan-3-yl]azacyclobutan-3-yl}-3-methylimidazo[1,5-a]pyridin-8-yl)-N,N-di(isopropyl)benzamide], the IC50 on Menin-MLL (setting [3]) worked out at 1.2 nM; in experiment [2] (Homo sapiens, 168 h), 13 nM.

Take `COC[C@@H]1CN(CCC[C@H](C(C)C)N2CC(c3cc(-c4ccc(F)cc4C(=O)N(C(C)C)C(C)C)c4cnc(C)n4c3)C2)CCN1` [Example 505-2]: the IC50 on Menin-MLL (setting [3]) stood at 1 nM; in experiment [2] (Homo sapiens, 168 h), 9.9 nM.

In the case of `CCN(C(=O)c1cc(F)ccc1-c1cc(C2CN([C@H](CCCN3CCN(C)[C@@H](CO)C3)C(C)C)C2)cn2c(C)ncc12)C(C)C` [Example 506], the IC50 worked out at 0.9 nM at Menin-MLL (setting [3]) and 13 nM in experiment [2] (Homo sapiens, 168 h).

Consider `CCN(C(=O)c1cc(F)ccc1-c1cc(C2CN([C@H](CCCN3CCN(C)[C@H](CO)C3)C(C)C)C2)cn2c(C)ncc12)C(C)C` [Example 507], for which the IC50 on Menin-MLL (setting [3]) worked out at 1 nM; in experiment [2] (Homo sapiens, 168 h), 15 nM.

For the compound `CCN(C(=O)c1cc(F)ccc1-c1cc(C2CN(C(CCCN3CCN(C)C(COC)C3)C(C)C)C2)cn2c(C)ncc12)C(C)C` (stereo not shown) [Example 508], the IC50 on Menin-MLL (setting [3]) worked out at 1.1 nM; in experiment [2] (Homo sapiens, 168 h), 11 nM.

Consider `CCN(C(=O)c1cc(F)ccc1-c1cc(C2CN([C@H](CCCN3CCN(C)[C@H](COC)C3)C(C)C)C2)cn2c(C)ncc12)C(C)C` [Example 509], for which the IC50 amounted to 1.1 nM on Menin-MLL (setting [3]) and 7.2 nM in experiment [2] (Homo sapiens, 168 h).

For `CCN(C(=O)c1cc(F)ccc1-c1cc(C2CN([C@H](CCCN(C)CCOC)C(C)C)C2)cn2c(C)ncc12)C(C)C` [Example 510], the IC50 at Menin-MLL (setting [3]) amounted to 0.9 nM; in experiment [2] (Homo sapiens, 168 h) it was 9.9 nM.
